Several values for one entry are separate records, joined by “and”; a condition that tells them apart may be missing. Equal values may be shown once.
Assays:
HIV-1 protease [1] = target: T1, HIV-1 protease (Human immunodeficiency virus type 1 group M subtype B, UniProt P04585); assay: biochemical; settings: for inhibition at 0.123 µM: read-out: HIV-1 Protease % Inhib, dose 0.123 uM; for inhibition at 0.37 µM: read-out: HIV-1 Protease % Inhib, dose 0.370 uM; for inhibition at 1.1 µM: read-out: HIV-1 Protease % Inhib, dose 1.100 uM; for inhibition at 3.3 µM: read-out: HIV-1 Protease % Inhib, dose 3.300 uM; for inhibition at 10 µM: read-out: HIV-1 Protease % Inhib, dose 10.000 uM; for inhibition at 30 µM: read-out: HIV-1 Protease % Inhib, dose 30.000 uM; for inhibition at 1 µM: read-out: HIV-1 Protease % Inhib, dose 1.000 uM; for inhibition at 100 µM: read-out: HIV-1 Protease % Inhib, dose 100.000 uM
Method in brief: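 Biotinylated, FITC-labeled peptide substrate (20 μl of 0.2 μM) incubated with HIV-1 protease (10 μl of 0.1 μM) and compound in 0.1 M sodium acetate pH 5.5, 1.0 M NaCl, 0.05% NP-40, 1 h, room temperature, dark. Streptavidin beads then capture uncleaved substrate; filtered labeled product read by fluorescence, giving percent inhibition.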

HIV-1 protease [2] = target: T1, HIV-1 protease; assay: biochemical; settings: read-out: HIV-1 FITC KI
Method: Determination of Ki values utilizes the same materials and equipment employed for percent inhibition studies. Two-fold serial dilutions are made for a given inhibitor from 2, 3 or 4 starting concentrations with a total of 24, 36 or 48 individual inhibitor concentrations. These dilutions are performed utilizing the BioMek robotics system. The assay consists of 10 μL of 40 nM HIV-1 protease, 10 μL of the various inhibitor concentrations, and 20 μL of 200 μM substrate (40 μL total). The reaction is allowed to proceed for 90 min at room temperature, terminated with 40 μL of avidin beads and processed (supra vide). An inhibitor with a known Ki is run in parallel to verify the validity of the assay. The data is processed utilizing a computer program employing a nonlinear least square analysis of the data to generate the Ki values.

CCCC1CCCCCc2c1oc(=O)c([C@@H](c1ccccc1)C1CC1)c2O (mixture of isomers) [Example 232, 3-(R)-(Cyclopropylphenylmethyl)-4-hydroxy-10-(R and S)-propyl-5,6,7,8,9,10-hexahydro-cycloocta[b]pyran-2-one]
inhibition at 0.123 µM (HIV-1 protease [1]): 19.3%
inhibition at 0.37 µM (HIV-1 protease [1]): 51.2%
inhibition at 1.1 µM (HIV-1 protease [1]): 80.4%
inhibition at 3.3 µM (HIV-1 protease [1]): 95.3%
inhibition at 10 µM (HIV-1 protease [1]): 104%
inhibition at 30 µM (HIV-1 protease [1]): 95%
Ki (HIV-1 protease [2]): 30 nM

CCCC1CCCCCc2c1oc(=O)c([C@H](c1ccccc1)C1CC1)c2O (mixture of isomers) [Example 235, 3-(S)-(Cyclopropylphenylmethyl)-4-hydroxy-10-(R and S)-propyl-5,6,7,8,9,10-hexahydro-cycloocta[b]pyran-2-one]
inhibition at 0.123 µM (HIV-1 protease [1]): 24.8%
inhibition at 0.37 µM (HIV-1 protease [1]): 71.8%
inhibition at 1.1 µM (HIV-1 protease [1]): 92.7%
inhibition at 3.3 µM (HIV-1 protease [1]): 105%
inhibition at 10 µM (HIV-1 protease [1]): 103%
inhibition at 30 µM (HIV-1 protease [1]): 99.5%
Ki (HIV-1 protease [2]): 11 nM

O=c1oc2c(c(O)c1C(c1ccccc1)C1CC1)CCCCCC2CC1CCCO1 (single isomer, unassigned) [Example 170, 3-(Cyclopropylphenylmethyl)-5,6,7,8,9,10-hexahydro-4-hydroxy-10-[(tetrahydro-2-furanyl)methyl]-2H-cycloocta[b]pyran-2-one]
inhibition at 0.123 µM (HIV-1 protease [1]): 23.2%
inhibition at 0.37 µM (HIV-1 protease [1]): 62.3%
inhibition at 1.1 µM (HIV-1 protease [1]): 92.5%
inhibition at 3.3 µM (HIV-1 protease [1]): 99.3%
inhibition at 10 µM (HIV-1 protease [1]): 107%
inhibition at 30 µM (HIV-1 protease [1]): 111%
Ki (HIV-1 protease [2]): 31 nM

O=c1oc2c(c(O)c1C(c1ccccc1)C1CC1)CCCCCC2CC1CCCO1 (single isomer, unassigned) [Example 171, 3-(Cyclopropylphenylmethyl)-5,6,7,8,9,10-hexahydro-4-hydroxy-10-[(tetrahydro-2-furanyl)methyl]-2H-cycloocta[b]pyran-2-one]
HIV-1 Protease % Inhib (HIV-1 protease [1]; dose 0.123 uM): 33.13%
HIV-1 Protease % Inhib (HIV-1 protease [1]; dose 0.370 uM): 73.44%
HIV-1 Protease % Inhib (HIV-1 protease [1]; dose 1.100 uM): 96.52%
HIV-1 Protease % Inhib (HIV-1 protease [1]; dose 3.300 uM): 103.16%
HIV-1 Protease % Inhib (HIV-1 protease [1]; dose 10.000 uM): 109.98%
HIV-1 Protease % Inhib (HIV-1 protease [1]; dose 30.000 uM): 108.64%
Ki (HIV-1 protease [2]): 23 nM

CC(C)(C)OC(=O)NCC(=O)Nc1cccc(C(c2c(O)c3c(oc2=O)CCCCCC3)C2CC2)c1 (single isomer, unassigned) [Example 238, Carbamic acid, [2-[[3-(R or S)-[cyclopropyl(5,6,7,8,9,10-hexahydro-4-hydroxy-2-oxo-2H-cycloocta[b]pyran-3-yl)methyl]phenyl]amino]-2-oxoethyl]-, 1,1-dimethyl ethyl ester]
HIV-1 Protease % Inhib (HIV-1 protease [1]; dose 0.123 uM): 30.5%
inhibition at 0.37 µM (HIV-1 protease [1]): 76.4%
inhibition at 1.1 µM (HIV-1 protease [1]): 96.3%
inhibition at 3.3 µM (HIV-1 protease [1]): 99.9%
inhibition at 10 µM (HIV-1 protease [1]): 116%
inhibition at 30 µM (HIV-1 protease [1]): 115%
Ki (HIV-1 protease [2]): 13.4 nM

CC(C)(C)OC(=O)NCC(=O)Nc1cccc(C(c2c(O)c3c(oc2=O)CCCCCC3)C2CC2)c1 (single isomer, unassigned) [Example 239, Carbamic acid, [2-[[3-(R or S)-[cyclopropyl(5,6,7,8,9,10)-hexahydro-4-hydroxy-2-oxo-2H-cycloocta[b]pyran-3-yl)methyl]phenyl]amino]-2-oxoethyl]-, 1,1-dimethyl ethyl ester]
HIV-1 Protease % Inhib (HIV-1 protease [1]; dose 0.123 uM): 69.55%
HIV-1 Protease % Inhib (HIV-1 protease [1]; dose 0.370 uM): 88.01%
HIV-1 Protease % Inhib (HIV-1 protease [1]; dose 1.100 uM): 98.34%
HIV-1 Protease % Inhib (HIV-1 protease [1]; dose 3.300 uM): 102.72%
HIV-1 Protease % Inhib (HIV-1 protease [1]; dose 10.000 uM): 107.4%
HIV-1 Protease % Inhib (HIV-1 protease [1]; dose 30.000 uM): 100.72%
Ki (HIV-1 protease [2]): 2.2 nM

CC(C)(C)OC(=O)N[C@@H](Cc1c[nH]cn1)C(=O)Nc1cccc(C(c2c(O)c3c(oc2=O)CCCCCC3)C2CC2)c1 (single isomer, unassigned) [Example 240, Carbamic acid, [2-[[3-(R or S)-[cyclopropyl(5,6,7,8,9,10-hexahydro-4-hydroxy-2-oxo-2H-cycloocta[b]pyran-3-yl)methyl]phenyl]amino]-1-(S)-(1H-imidazol-4-ylmethyl)-2-oxoethyl]-, 1,1 dimethyl ethyl ester]
HIV-1 Protease % Inhib (HIV-1 protease [1]; dose 0.123 uM): 54.87%
HIV-1 Protease % Inhib (HIV-1 protease [1]; dose 0.370 uM): 89.42%
HIV-1 Protease % Inhib (HIV-1 protease [1]; dose 1.100 uM): 111.38%
HIV-1 Protease % Inhib (HIV-1 protease [1]; dose 3.300 uM): 113.39%
HIV-1 Protease % Inhib (HIV-1 protease [1]; dose 10.000 uM): 114.19%
HIV-1 Protease % Inhib (HIV-1 protease [1]; dose 30.000 uM): 109.5%
Ki (HIV-1 protease [2]): 4.2 nM and 5 nM

CC(C)(C)OC(=O)N[C@@H](Cc1c[nH]cn1)C(=O)Nc1cccc(C(c2c(O)c3c(oc2=O)CCCCCC3)C2CC2)c1 (single isomer, unassigned) [Example 241, Carbamic acid, [2-[[3-(R or S)-[Cyclopropyl(5,6,7,8,9,10-hexahydro-4-hydroxy-2-oxo-2H-cycloocta[b]pyran-3-yl)methyl]phenyl]amino]-1-(S)-(1H-imidazol-4-ylmethyl)-2-oxoethyl]-, 1,1 dimethyl ethyl ester]
HIV-1 Protease % Inhib (HIV-1 protease [1]; dose 0.123 uM): 81.78%
HIV-1 Protease % Inhib (HIV-1 protease [1]; dose 0.370 uM): 91.77%
HIV-1 Protease % Inhib (HIV-1 protease [1]; dose 1.100 uM): 98.65%
HIV-1 Protease % Inhib (HIV-1 protease [1]; dose 3.300 uM): 101.51%
HIV-1 Protease % Inhib (HIV-1 protease [1]; dose 10.000 uM): 110.04%
HIV-1 Protease % Inhib (HIV-1 protease [1]; dose 30.000 uM): 104.34%
Ki (HIV-1 protease [2]): 1.32 nM and 1.9 nM

CCCC(c1cccc(NS(=O)(=O)c2ccc(C#N)cc2)c1)c1c(O)c2c(oc1=O)CCCCCC2 (single isomer, unassigned) [Example 437, (R or S)-Benzenesulfonamide, 4-cyano-N-[3-[1-(5,6,7,8,9,10-hexahydro-4-hydroxy-2-oxo-2H-cycloocta[b]pyran-3-yl)butyl]phenyl]-]
inhibition at 0.123 µM (HIV-1 protease [1]): 68.1%
inhibition at 0.37 µM (HIV-1 protease [1]): 87.1%
inhibition at 1.1 µM (HIV-1 protease [1]): 103%
inhibition at 3.3 µM (HIV-1 protease [1]): 108%
inhibition at 10 µM (HIV-1 protease [1]): 112%
inhibition at 30 µM (HIV-1 protease [1]): 105%
Ki (HIV-1 protease [2]): 2.3 nM

CCCC(c1cccc(NS(=O)(=O)c2ccc(C#N)cc2)c1)c1c(O)c2c(oc1=O)CCCCCC2 (single isomer, unassigned) [Example 439, (R or S)-Benzenesulfonamide, 4-cyano-N-[3-[1-(5,6,7,8,9,10-hexahydro-4-hydroxy-2-oxo-2H-cycloocta[b]pyran-3-yl)butyl]phenyl]-]
HIV-1 Protease % Inhib (HIV-1 protease [1]; dose 0.123 uM): 60.96%
HIV-1 Protease % Inhib (HIV-1 protease [1]; dose 0.370 uM): 68.15%
HIV-1 Protease % Inhib (HIV-1 protease [1]; dose 1.100 uM): 92.17%
HIV-1 Protease % Inhib (HIV-1 protease [1]; dose 3.300 uM): 92.32%
HIV-1 Protease % Inhib (HIV-1 protease [1]; dose 10.000 uM): 96.45%
HIV-1 Protease % Inhib (HIV-1 protease [1]; dose 30.000 uM): 94.26%
Ki (HIV-1 protease [2]): 3 nM

O=c1oc2c(c(O)c1C(c1ccccc1)C1CC1)CCCCCC2 (centres unmarked) [Example 107, 3-(Cyclopropylphenylmethyl)-5,6,7,8,9,10-hexahydro-4-hydroxy-2h-cycloocta[b]pyran-2-one]
inhibition at 1 µM (HIV-1 protease [1]): 90.7%
inhibition at 10 µM (HIV-1 protease [1]): 101%
inhibition at 100 µM (HIV-1 protease [1]): 101%
Ki (HIV-1 protease [2]): 20 nM and 12 nM and 7 nM

CCC(c1ccccc1)c1c(O)c2c(oc1=O)CCCC2 (stereo not drawn) [Example 109, 5,6,7,8-Tetrahydro-4-hydroxy-3-(1-phenylpropyl)-2H-l-benzopyran-2-one]
inhibition at 1 µM (HIV-1 protease [1]): < 10%
inhibition at 10 µM (HIV-1 protease [1]): 71.9%
inhibition at 100 µM (HIV-1 protease [1]): 92%
Ki (HIV-1 protease [2]): 1090 nM

CCC(c1ccccc1)c1c(O)c2c(oc1=O)CCC2 (centres unmarked) [Example 111, 6,7-Dihydro-4-hydroxy-3-(1-phenylpropyl)-cyclopenta[b]pyran-2(5H)-one]
inhibition at 1 µM (HIV-1 protease [1]): 36.5%
inhibition at 10 µM (HIV-1 protease [1]): 94.3%
inhibition at 100 µM (HIV-1 protease [1]): 101%
Ki (HIV-1 protease [2]): 700 nM

O=c1oc2c(c(O)c1C(c1ccccc1)C1CC1)CCCCC2 (centres unmarked) [Example 112, 3-(Cyclopropylphenylmethyl)-6,7,8,9-tetrahydro-4-hydroxy-cyclohepta[b]pyran-2(5H)-one]
inhibition at 1 µM (HIV-1 protease [1]): 70.1%
inhibition at 10 µM (HIV-1 protease [1]): 102%
inhibition at 100 µM (HIV-1 protease [1]): 105%
Ki (HIV-1 protease [2]): 96 nM

O=c1oc2c(c(O)c1C(c1ccccc1)C1CC1)CCCC2 (centres unmarked) [Example 115, 3-(Cyclopropylphenylmethyl)-5,6,7,8-tetraphydro-4-hydroxy-2H-1-benzopyran-2-one]
inhibition at 1 µM (HIV-1 protease [1]): 62.1%
inhibition at 10 µM (HIV-1 protease [1]): 102%
inhibition at 100 µM (HIV-1 protease [1]): 129%
Ki (HIV-1 protease [2]): 177 nM

O=c1oc2c(c(O)c1C(c1ccccc1)C1CC1)CCCCCCCC2 (centres unmarked) [Example 116, 3-(Cyclopropylphenylmethyl)-5,6,7,8,9,10,11,12-octahydro-4-hydroxy-2H-cyclodeca[b]pyran-2-one]
inhibition at 1 µM (HIV-1 protease [1]): 23%
inhibition at 10 µM (HIV-1 protease [1]): 65.7%
inhibition at 100 µM (HIV-1 protease [1]): 102%
Ki (HIV-1 protease [2]): 558 nM

O=c1oc2c(c(O)c1C(c1ccccc1)C1CC1)CCCCCCC2 (centres unmarked) [Example 117, 3-(Cyclopropylphenylmethyl)-6,7,8,9,10,11-hexahydro-4-hydroxy-cyclonona[b]pyran-2(5H)-one]
inhibition at 0.41 µM (HIV-1 protease [1]; read-out: HIV-1 Protease % Inhib, dose 0.410 uM): 80.1%
inhibition at 1.23 µM (HIV-1 protease [1]; read-out: HIV-1 Protease % Inhib, dose 1.230 uM): 94%
inhibition at 3.7 µM (HIV-1 protease [1]; read-out: HIV-1 Protease % Inhib, dose 3.700 uM): 101%
inhibition at 11 µM (HIV-1 protease [1]; read-out: HIV-1 Protease % Inhib, dose 11.000 uM): 114%
inhibition at 33 µM (HIV-1 protease [1]; read-out: HIV-1 Protease % Inhib, dose 33.000 uM): 107%
inhibition at 100 µM (HIV-1 protease [1]): 100%
Ki (HIV-1 protease [2]): 37 nM

Reference: patent US5686486A, “4-hydroxy-benzopyran-2-ones and 4-hydroxy-cycloalkyl[b]pyran-2-ones useful to treat retroviral infections” (priority 1995, dated 1997)
